Measured values: patent publication US20230159546A1, “NOVEL SPIROPYRROLIDINE DERIVED ANTIVIRAL AGENTS” (Enanta Pharmaceuticals, Inc., priority 2021, published 2023)
pEC50, pIC50: −log10 of the molar value. Where two headings read alike, the source gives them in different places.

What was measured:
[1] = biological target: SARS-CoV-2 3CL-protease (Severe acute respiratory syndrome coronavirus 2, UniProt P0DTD1); assay: SARS-CoV-2 3C-like (3CL) protease fluorescence assay (FRET); assay type: biochemical; conditions: recombinant SARS-CoV-2 3CL-protease 10 nM, 30 min preincubation at RT, duplicate; read-out: FRET IC50
[2] = system: 229E human corona virus (hCoV); assay: 229E live virus assay (CPE, ATPlite readout, MRC-5 cells); assay type: cell-based, hCoV-229E; conditions: Human coronavirus 229E, MRC5, 144 h, read-out: 229E EC50
[3] = MRC-5 cells, MOI 0.05, 6 days at 34° C., ATPlite, duplicate

Compound | pIC50 [1] | pEC50 [2, 3] | pEC50 [2]
N#C[C@@H]1C[C@@]2(CN1C(=O)c1ccccc1)C(=O)Nc1ccccc12 [Example 30] | < 6.00 | 6.00 to 7.00 | 
CC(C(=O)Nc1ccccc1)C(=O)N1C[C@]2(C[C@H]1C#N)C(=O)Nc1ccccc12 (stereo partly shown) [Example 15] | < 6.00 | < 6.00 | 
CC(C)(C)C(=O)N1C[C@]2(C[C@H]1C#N)C(=O)Nc1ccccc12 [Example 41] | < 6.00 | < 6.00 | 
CC(C(=O)N(C)c1ccccc1)C(=O)N1C[C@]2(C[C@H]1C#N)C(=O)Nc1ccccc12 (stereo partly shown) [Example 16] | < 6.00 | 6.00 to 7.00 | 
CC(C)C[C@@H](C(=O)Nc1cc(F)cc(F)c1)C(=O)N1C[C@]2(C[C@H]1C#N)C(=O)Nc1ccccc12 (single isomer, unassigned) [Example 11] | < 6.00 | < 6.00 | 
CC(C)C(=O)N1C[C@]2(C[C@H]1C#N)C(=O)Nc1ccccc12 [Example 40] | < 6.00 | < 6.00 | 
Cc1nc(-c2ccc(S(=O)(=O)N3C[C@]4(C[C@H]3C#N)C(=O)Nc3ccccc34)s2)cs1 [Example 34] | < 6.00 | < 6.00 | 
CC(C)CC(F)(C(=O)Nc1ccccc1)C(=O)N1C[C@]2(C[C@H]1C#N)C(=O)Nc1ccccc12 (stereo partly shown) [Example 18] | < 6.00 | < 6.00 | 
N#C[C@@H]1C[C@@]2(CN1S(=O)(=O)c1ccc(Oc3ccccc3)cc1)C(=O)Nc1ccccc12 [Example 35] | < 6.00 | < 6.00 | 
CC(C)CC(C(=O)Nc1cc(F)ccc1F)C(=O)N1C[C@]2(C[C@H]1C#N)C(=O)Nc1ccccc12 (stereo partly shown) [Example 6] | < 6.00 | 6.00 to 7.00 | 
N#C[C@@H]1C[C@@]2(CN1C(=O)C1CCCCC1)C(=O)Nc1ccccc12 [Example 43] | < 6.00 | < 6.00 | 
N#C[C@@H]1C[C@@]2(CN1C(=O)NCc1nccs1)C(=O)Nc1ccccc12 [Example 53] | < 6.00 | < 6.00 | 
CC(C)CC(C(=O)Nc1ccc2ccccc2c1)C(=O)N1C[C@]2(C[C@H]1C#N)C(=O)Nc1ccccc12 (stereo partly shown) [Example 5] | < 6.00 | 6.00 to 7.00 | 
CC(C)CC(C(=O)Nc1cccc(-c2ccccc2)c1)C(=O)N1C[C@]2(C[C@H]1C#N)C(=O)Nc1ccccc12 (stereo partly shown) [Example 13] | < 6.00 | < 6.00 | 
Cc1ccc(S(=O)(=O)N2C[C@]3(C[C@H]2C#N)C(=O)Nc2ccccc23)cc1 [Example 32] | < 6.00 |  | < 6.00
N#C[C@@H]1C[C@@]2(CN1C(=O)C1CC1)C(=O)Nc1ccccc12 [Example 42] | < 6.00 | < 6.00 | 
CC(C)CC(C(=O)Nc1cc(F)cc(F)c1)C(=O)N1C[C@]2(C[C@H]1C#N)C(=O)Nc1ccccc12 (stereo partly shown) [Example 7] | < 6.00 | 6.00 to 7.00 | 

Compound | pIC50 [1] | pEC50 [2, 3] | pEC50 [2]
N#C[C@@H]1C[C@@]2(CN1C(=O)C(Cc1ccccc1)C(=O)Nc1ccc3ccccc3c1)C(=O)Nc1ccccc12 (stereo partly shown) [Example 24] | 6.00 to 7.00 | < 6.00 | 
CC(C)CC(C(=O)Nc1ccccc1)C(=O)N1C[C@]2(C[C@H]1C#N)C(=O)Nc1ccccc12 (stereo partly shown) [Example 1] | < 6.00 |  | < 6.00
N#C[C@@H]1C[C@@]2(CN1C(=O)C(Cc1ccccc1)C(=O)Nc1ccccc1)C(=O)Nc1ccccc12 (stereo partly shown) [Example 21] | 6.00 to 7.00 | < 6.00 | 
N#C[C@@H]1C[C@@]2(CN1C(=O)c1cc3ccccc3nc1Cl)C(=O)Nc1ccccc12 [Example 37] | < 6.00 | < 6.00 | 
CC(C)CC(F)(C(=O)N(C)c1ccccc1)C(=O)N1C[C@]2(C[C@H]1C#N)C(=O)Nc1ccccc12 (stereo partly shown) [Example 19] | < 6.00 | < 6.00 | 
CCNC(=O)N1C[C@]2(C[C@H]1C#N)C(=O)Nc1ccccc12 [Example 46] | < 6.00 | < 6.00 | 
N#C[C@@H]1C[C@@]2(CN1C(=O)[C@@H](Cc1ccccc1)C(=O)Nc1cc(F)cc(F)c1)C(=O)Nc1ccccc12 [Example 25] | 6.00 to 7.00 | < 6.00 | 
N#C[C@@H]1C[C@@]2(CN1S(=O)(=O)c1ncc(-c3ccc(F)cc3)s1)C(=O)Nc1ccccc12 [Example 33] | < 6.00 | < 6.00 | 
CC(C)CC(C(=O)Nc1ccc(F)cc1Cl)C(=O)N1C[C@]2(C[C@H]1C#N)C(=O)Nc1ccccc12 (stereo partly shown) [Example 9] | < 6.00 | < 6.00 | 
CC(C)NC(=O)N1C[C@]2(C[C@H]1C#N)C(=O)Nc1ccccc12 [Example 47] | < 6.00 | < 6.00 | 
CC(C)CC(C(=O)N1C[C@]2(C[C@H]1C#N)C(=O)Nc1ccccc12)c1ccc(NC(=O)c2cc3c(F)cccc3[nH]2)cn1 (stereo partly shown) [Example 31] | < 6.00 | < 6.00 | 
CC(C)NC(=O)[C@H](Cc1ccccc1)C(=O)N1C[C@]2(C[C@H]1C#N)C(=O)Nc1ccccc12 [Example 115] | < 6.00 |  | 
N#C[C@@H]1C[C@@]2(CN1C(=O)C(=O)N[C@H]1CCC(F)(F)C1)C(=O)Nc1ccccc12 [Example 146] | 6.00 to 7.00 |  | 
N#C[C@@H]1C[C@@]2(CN1C(=O)C(=O)Nc1cc(C(F)(F)F)ccn1)C(=O)Nc1ccccc12 [Example 161] | < 6.00 |  | 
N#C[C@@H]1C[C@@]2(CN1CC1CC1)C(=O)Nc1ccccc12 [Example 66] | < 6.00 |  | 
N#C[C@@H]1C[C@@]2(CN1C(=O)C1(C(=O)c3ccccc3)CC1)C(=O)Nc1ccccc12 [Example 102] | < 6.00 |  | 
